Measured values taken from patent US20100222282A1, “METHOD OF DIAGNOSIS AND METHOD OF TREATMENT” (ENTRESS AB, priority 2006, published 2010).

Key:
[1] = system: Sprague-Dawley rats (2-3 years old); details: experimental groups, 8 weeks
Text: (§1) The aim of this experiment was to study the relationship between the blood level of AKG and survival of elderly rats. Forty Sprague-Dawley rats randomly chosen (2-3 years old) from the Department of Cell & Organisms Biology in Lund University were used in the experiment. The rats were divided into four groups, 10 rats each, two control groups and two experiment groups. […] The mixtures were titrated with 0.01 M NaOH to correct the pH.
(§2) Blood samples were taken at the beginning of the experiment from all rats and blood AKG levels were estimated. Experimental time was 8 weeks and parameters as AKG blood levels and survival were monitored.

[2] = rats of the experimental groups
Text: as §1, §2

SMILES: O=C([O-])CCC(=O)C(=O)[O-].[Na+].[Na+] [Na2AKG * 2H2O, sodium alpha-ketoglutarate]
- Survival of rats with initially low blood AKG (under 0.1 μg/ml) [1]: did survive the whole experiment
- Blood levels of AKG after oral feeding [2]: over 0.5 μg/ml
